# Laboratory results reported in US20060264406A1, “Mono-lysine salts of azole compounds” (Eisai Co., Ltd., priority 2005, published 2006).
# Structures can show the parent of a compound that is named as a salt.
# How the values were obtained:
# Type in all cases: physicochemical
# [1] = moisture uptake (weight change versus relative humidity); settings: 60% RH
# From the text: Weight change (y-axis) versus relative humidity (x-axis) is shown, wherein adsorption is shown by -∘-, and desorption by -∘-.
# For instance, Comparative Example 1 has about 10% change in weight at 60% RH (FIG. 1), whereas Example 1 has about 2-2.5% change in weight at the same humidity level (FIG. 2). On average, the mono-lysine salt or solvate thereof has better stability over the bis-lysine form (FIG. 4).
# [2] = aqueous solubility of the salts and solvates; settings: water
# Description: The obtained solvate of the mono-lysine salt of ((2R,3R)-3-(4-(4-cyanophenyl)thiazol-2-yl)-2-(2,4-difluorophenyl)-1-(1H-1,2,4-triazol-1-yl)butan-2-yloxy)methyl dihydrogen phosphate is scaled up and fully characterized. Physical-chemical properties including solubility, stability, moisture uptake, compaction, etc., are evaluated and compared to the bis-lysine salt of Comparative Example 1.
# Also, Example 1 retains a high aqueous solubility (>200 mg/mL) similar to that of the bis-lysine salt of Comparative Example 1.
# [3] = physical stability under stressed storage conditions (area percent); settings: for degradation on storage: 2-week stability data
structure (smiles),measurement,setting,value
"CC(C)O.C[C@@H](c1nc(-c2ccc(C#N)cc2)cs1)[C@@](Cn1cncn1)(OCOP(=O)(O)O)c1ccc(F)cc1F.NCCCC[C@H](N)C(=O)O [Example 5, ((2R,3R)-3-(4-(4-cyanophenyl)thiazol-2-yl)-2-(2,4-difluorophenyl)-1-(1H-1,2,4-triazol-1-yl)butan-2-yloxy)methyl dihydrogen phosphate mono-lysine salt isopropyl alcohol solvate]",weight change for adsorption,[1],< 0.5%
"C[C@@H](c1nc(-c2ccc(C#N)cc2)cs1)[C@@](Cn1cncn1)(OCOP(=O)(O)O)c1ccc(F)cc1F [Example 1, ((2R,3R)-3-(4-(4-cyanophenyl)thiazol-2-yl)-2-(2,4-difluorophenyl)-1-(1H-1,2,4-triazol-1-yl)butan-2-yloxy)methyl dihydrogen phosphate mono-lysine salt ethanol solvate]",Solubility,[2],>200 mg/mL
same,solubility,[2],> 200 mg/mL
same,change in weight (moisture uptake),[1],2-2.5%
same,weight change for adsorption,[1],< 2.5%
same,weight change for desorption,[1],< 5%
same,change in weight (moisture uptake),[1]; listed as mono-lysine monoethanolate,2-3%
same,degradation on storage,[3]; 40° C./75% RH (open and closed),minimal degradation
same,degradation on storage,[3]; any other storage conditions,No degradation
same,Area Percent (AP as phosphonoxoxymethyl ether derivative of ravuconazole),"[3]; 5° C., 1 Week",98.47 Area Percent
same,Area Percent (AP as phosphonoxoxymethyl ether derivative of ravuconazole),"[3]; 5° C., 2 Weeks",99.60 Area Percent
same,Area Percent (AP as phosphonoxoxymethyl ether derivative of ravuconazole),"[3]; 5° C., 5 Days",99.59 Area Percent
same,Area Percent (AP as phosphonoxoxymethyl ether derivative of ravuconazole),"[3]; 25° C./60% RH (Closed), 1 Week",99.66 Area Percent
same,Area Percent (AP as phosphonoxoxymethyl ether derivative of ravuconazole),"[3]; 25° C./60% RH (Closed), 2 Weeks",99.21 Area Percent
same,Area Percent (AP as phosphonoxoxymethyl ether derivative of ravuconazole),"[3]; 25° C./60% RH (Closed), 5 Days",99.59 Area Percent
same,Area Percent (AP as phosphonoxoxymethyl ether derivative of ravuconazole),"[3]; 25° C./60% RH (Open), 1 Week",99.65 Area Percent
same,Area Percent (AP as phosphonoxoxymethyl ether derivative of ravuconazole),"[3]; 25° C./60% RH (Open), 2 Weeks",99.42 Area Percent
same,Area Percent (AP as phosphonoxoxymethyl ether derivative of ravuconazole),"[3]; 25° C./60% RH (Open), 5 Days",99.61 Area Percent
same,Area Percent (AP as phosphonoxoxymethyl ether derivative of ravuconazole),"[3]; 40° C./75% RH (Closed), 1 Week",99.05 Area Percent
same,Area Percent (AP as phosphonoxoxymethyl ether derivative of ravuconazole),"[3]; 40° C./75% RH (Closed), 2 Weeks",97.90 Area Percent
same,Area Percent (AP as phosphonoxoxymethyl ether derivative of ravuconazole),"[3]; 40° C./75% RH (Closed), 5 Days",99.20 Area Percent
same,Area Percent (AP as phosphonoxoxymethyl ether derivative of ravuconazole),"[3]; 40° C./75% RH (Open), 1 Week",98.76 Area Percent
same,Area Percent (AP as phosphonoxoxymethyl ether derivative of ravuconazole),"[3]; 40° C./75% RH (Open), 2 Weeks",96.90 Area Percent
same,Area Percent (AP as phosphonoxoxymethyl ether derivative of ravuconazole),"[3]; 40° C./75% RH (Open), 5 Days",98.97 Area Percent
same,Area Percent (AP as phosphonoxoxymethyl ether derivative of ravuconazole),"[3]; 60° C., 1 Week",99.70 Area Percent
same,Area Percent (AP as phosphonoxoxymethyl ether derivative of ravuconazole),"[3]; 60° C., 2 Weeks",99.73 Area Percent
same,Area Percent (AP as phosphonoxoxymethyl ether derivative of ravuconazole),"[3]; 60° C., 5 Days",99.70 Area Percent
same,Area Percent (AP as phosphonoxoxymethyl ether derivative of ravuconazole),"[3]; HIL/UV (Controlled), 1 Week",99.64 Area Percent
same,Area Percent (AP as phosphonoxoxymethyl ether derivative of ravuconazole),"[3]; HIL/UV (Controlled), 2 Weeks",99.68 Area Percent
same,Area Percent (AP as phosphonoxoxymethyl ether derivative of ravuconazole),"[3]; HIL/UV (Controlled), 5 Days",99.60 Area Percent
same,Area Percent (AP as phosphonoxoxymethyl ether derivative of ravuconazole),"[3]; HIL/UV (Exposed), 1 Week",98.68 Area Percent
same,Area Percent (AP as phosphonoxoxymethyl ether derivative of ravuconazole),"[3]; HIL/UV (Exposed), 2 Weeks",99.68 Area Percent
same,Area Percent (AP as phosphonoxoxymethyl ether derivative of ravuconazole),"[3]; HIL/UV (Exposed), 5 Days",99.61 Area Percent
same,Area Percent (AP as phosphonoxoxymethyl ether derivative of ravuconazole),[3]; Initial,99.56 Area Percent
"C[C@@H](c1nc(-c2ccc(C#N)cc2)cs1)[C@@](Cn1cncn1)(OCOP(=O)(O)O)c1ccc(F)cc1F.NCCCC[C@H](N)C(=O)O.NCCCC[C@H](N)C(=O)O [Comparative Example 1, Bis-lysine salt of (2R,3R)-3-[4-(4-cyanophenyl)thiazol-2-yl]-2-(2,4-difluorophenyl)-1-(1H-1,2,4-triazol-1-yl)-2-[(dihydrogenphosphonoxy)methoxy]butane, reference compound]",change in weight (moisture uptake),[1],about 10%
same,change in weight (moisture uptake),[1]; listed as bis-lysine monoethanolate,10%
